Laboratory results: patent US20060161001A1, “Substituted heterocyclic compounds and methods of use” (Amgen Inc., priority 2004, published 2006)

tested on: LPS induced TNF release; assay: THP1 cell assay (LPS induced TNF release); assay type: cell-based; details: Homo sapiens, THP-1; THP1 cells, LPS induced TNF-α secretion, 3 h at 37° C.
Method: Lipopolysaccharide-Activated THP1 Cell TNF Production Assay
THP1 cells are resuspended in fresh THP1 media (RPMI 1640, 10% heat-inactivated FBS, 1XPGS, 1XNEAA, plus 30 μM OME) at a concentration of 1E6/mL. One hundred microliters of cells per well are plated in a polystyrene 96-well tissue culture. One microgram per mL of bacterial LPS is prepared in THP1 media and is transferred to the wells. Test compounds are dissolved in 100% DMSO and are serially diluted 3-fold in a polypropylene 96-well microtiter plate (drug plate). HI control and LO control wells contain only DMSO. One microliter of test compound from the drug plate followed by 10 μL of LPS are transferred to the cell plate. The treated cells are induced to synthesize and secrete TNF-α at 37° C. for 3 h. Forty microliters of conditioned media are transferred to a 96-well polypropylene plate containing 110 μL of ECL buffer (50 mM Tris-HCl pH 8.0, 100 mM NaCl, 0.05% Tween 20, 0.05% NaN3 and 1% FBS) supplemented with 0.44 nM MAB610 monoclonal Ab (R&D Systems), 0.34 nM ruthenylated AF210NA polyclonal Ab (R&D Systems) and 44 μg/mL sheep anti-mouse M280 Dynabeads (Dynal). After a 2 h incubation at RT with shaking, the reaction is read on the ECL M8 Instrument (IGEN Inc.). A low voltage is applied to the ruthenylated TNF-α immune complexes, which in the presence of TPA (the active component in Origlo), results in a cyclical redox reaction generating light at […]. The amount of secreted TNF-α in the presence of compound compared with that in the presence of DMSO vehicle alone (HI control) is calculated using the formula: % control (POC)=(cpd−average LO)/(average HI−average LO)*100. Data (consisting of POC and inhibitor concentration in μM) is fitted to a 4-parameter equation (y=A+((B−A)/(I+((x/C)ˆD))), where A is the minimum y (POC) value, B is the maximum y (POC), C is the x (cpd concentration) at the point of inflection and D is the slope factor) using a Levenburg-Marquardt non-linear regression algorithm.

IC50, ≤ 20 µM:
O=C(C[C@@H](Cc1ccccc1)Nc1nccc(N2CCCc3cnc(-c4ccccc4)cc32)n1)N1CCOCC1 [Example 20, (R)-1-Morpholino-4-phenyl-3-(4-(7-phenyl-3,4-dihydro-1,6-naphthyridin-1(2H)-yl)pyrimidin-2-ylamino)butan-1-one]
CC(C)(C)OC(=O)N1CCC(Nc2ncc(F)c(N3CCCc4cnc(-c5ccccc5)cc43)n2)CC1 [Example 24]
CNCCC(=O)N1CCC(Nc2nccc(N3CCCc4cnc(-c5ccccc5)cc43)n2)CC1 [Example 15, 3-(Methylamino)-1-(4(4-(7-phenyl-3,4-dihydro-1,6-naphthyridin-1(2H)-yl)-pyrimidin-2-ylamino)piperdin-1-yl)propan-1-one]
Cc1cc(N2CCCc3ccc(-c4ccccc4)nc32)nc(F)n1 [Example 59, 1-(2-Fluoro-6-methylpyrimidin-4-yl)-7-phenyl-1,2,3,4-tetrahydro-1,8-naphthyridine]
OCc1cc2c(nc1-c1ccccc1)N(c1ccnc(NCCc3ccccc3)n1)CCC2 [Example 67, (8-(2-(Phenethylamino)pyrimidin-4-yl)-2-phenyl-5,6,7,8-tetrahydro-1,8-naphthyridin-3-yl)methanol]
COC(=O)[C@@H](Cc1ccccc1)Nc1nccc(N2CCCc3cnc(-c4ccccc4)cc32)n1 [Example 17, (R)-Methyl-3-phenyl-2-(4-(7-phenyl-3,4-dihydro-1,6-naphthyridin-1(2H)-yl)-pyrimidin-2-ylamino)propanoate]
CC(C)NC1CCC(Nc2nccc(N3CCCc4ccc(-c5ccccc5)nc43)n2)CC1 [Example 89, (1R,4R)-N^1-Isopropyl-N^4-(4-(7-phenyl-3,4-dihydro-1,8-naphthyridin-1(2H)-yl)pyrimidin-2-yl)cyclohexane-1,4-diamine]
C[C@@H](Cc1cccc(C(C)(C)N)c1)Nc1nccc(N2CCOc3cnc(-c4ccccc4)nc32)n1 [Example 108, (S)-N-(1-(3-(2-Aminopropan-2-yl)phenyl)propan-2-yl)-4-(2-phenyl-6,7-dihydropyrimido[5,4-b][1,4]oxazin-8-yl)pyrimidin-2-amine]
c1ccc(CCNc2nccc(N3CCCc4cnc(-c5ccccc5)cc43)n2)cc1 [Example 3, N-Phenethyl-4-(7-phenyl-3,4-dihydro-1,6-naphthyridin-1(2H)-yl)pyrimidin-2-amine]
C[C@@H](Cc1cccc(C(C)(C)N)c1)Nc1nccc(N2CCCc3cnc(-c4ccccc4)cc32)n1 [Example 39, (S)-N-(1-(3-(2-Aminopropan-2-yl)phenyl)propan-2-yl)-4-(7-phenyl-3,4-dihydro-1,6-naphthyridin-1(2H)-yl) pyrimidin-2-amine]
CC(=O)N1CCC(Nc2nccc(N3CCCc4cnc(-c5ccccc5)cc43)n2)CC1 [Example 9, 1-(4-(4-(7-Phenyl-3,4-dihydro-1,6-naphthyridin-1(2H)-yl)pyrimidin-2-ylamino)-piperidin-1-yl)ethanone]
CC(=O)N1CCC(Nc2nccc(N3CCOc4cnc(-c5ccccc5)nc43)n2)CC1 [Example 107, 1-(4-(4-(2-Phenyl-6,7-dihydropyrimido[5,4-b][1,4]oxazin-8-yl)pyrimidin-2-yl-amino)piperidin-1-yl)ethanone]
C[C@@H](Cc1cccc([C@@H](C)NC(=O)OC(C)(C)C)c1)Nc1nccc(N2CCOc3cnc(-c4ccccc4)nc32)n1 [Example 99, tert-Butyl (R)-1-(3-((S)-2-(4-(2-phenyl-6,7-dihydropyrimido[5,4-b][1,4]oxazin-8-yl)pyrimidin-2-ylamino)propyl)phenyl)ethylcarbamate]
NC1CCC(Nc2nccc(N3CCCc4ccc(-c5ccccc5)nc43)n2)CC1 [Example 88, (1R,4R)-N^1-(4-(7-Phenyl-3,4-dihydro-1,8-naphthyridin-1(2H)-ylpyrimidin-2-yl)-cyclohexane-1,4-diamine]
CC(C)(N)CNc1nccc(N2CCCc3ccc(-c4ccccc4)nc32)n1 [Example 53, N-(2-Amino-2-methylpropyl)-4-(7-phenyl-3,4-dihydro-1,8-naphthyridin-1(2H)-yl)-pyrimidin-2-amine]
c1ccc(-c2ccc3c(n2)N(c2ccnc(NCCc4cccnc4)n2)CCC3)cc1 [Example 50, 4-(7-Phenyl-3,4-dihydro-1,8-naphthyridin-1(2H)-yl)-N-(2-(pyridin-3-yl)ethyl)-pyrimidin-2-amine]
CCOC(=O)c1cc2c(nc1-c1ccccc1)N(c1ccnc(NC(C)Cc3cccc(CO)c3)n1)CCC2 (centres unmarked) [Example 79, Ethyl 8-(2-(1-(3-(hydroxymethyl)phenyl)propan-2-ylamino)pyrimidin-4-yl)-2-phenyl-5,6,7,8-tetrahydro-1,8-naphthyridine-3-carboxylate]
C[C@@H](Cc1cccc([C@@H](C)N)c1)Nc1nccc(N2CCCc3ccc(-c4ccccc4)nc32)n1 [Example 91, N-((S)-1-(3-((R)-1-Aminoethyl)phenyl)propan-2-yl)-4-(7-phenyl-3,4-dihydro-1,8-naphthyridin-1(2H)-yl) pyrimidin-2-amine]
O=C(O)C[C@@H](Cc1ccccc1)Nc1nccc(N2CCCc3cnc(-c4ccccc4)cc32)n1 [Example 19, (R)-4-Phenyl-3-(4-(7-phenyl-3,4-dihydro-1,6-naphthyridin-1(2H)-yl)pyrimidin-2-ylamino)butanoic acid]
Cc1cc(N2CCCc3ccc(-c4ccccc4)nc32)nc(N[C@@H](C)Cc2cccc([C@@H](C)NC(=O)OC(C)(C)C)c2)n1 [Example 61, tert-Butyl (R)-1-(3-((S)-2-(4-methyl-6-(7-phenyl-3,4-dihydro-1,8-naphthyridin-1 (2H)-yl)pyrimidin-2-ylamino)propyl)phenyl)ethylcarbamate]
